Where two headings read alike, the source gives them in different places.

The subject of data set [1] is Vδ2 positive γδ T cells in peripheral blood mononuclear cells of adult T cell leukemia patients. The data set can be described thus: Induction of Vδ2 positive γδ T cell proliferation from peripheral blood mononuclear cells of adult T cell leukemia patients (FACS). Format: cell-based, human. As to conditions: ZOLF-POM 1 μM, cultured 11 days with IL-2. The method, then:
(§1) Heparin blood samples (peripheral blood 10 mL) were collected from adult T cell leukemia patients (1), and diluted with 10 mL of PBS. This was overlaid on 20 mL of Ficoll-Paque and subjected to density gradient centrifugation at 600×g for 30 min at room temperature. The layer directly above Ficoll-Paque was recovered, and washed 3 times with PBS to give peripheral blood mononuclear cells. The cells were suspended in 7 mL of Yssel medium, 1 mL therefrom was stained with PE-labeled anti-human CD3 monoclonal antibody and FITC-labeled anti-human Vδ2 monoclonal antibody, and analyzed by flow cytometer. As a result, as shown in the panel on the left side in FIG. 2, Vδ2 positive γδ T cells accounted for 0.75% of lymphocyte gate. […] As a result, as shown in the panel on the right side in FIG. 2, Vδ2 positive γδ T cells accounted for 91.48% of lymphocyte gate.
as §1, with “(2),” for “(1),”, “3,” for “2,”, “1.58%” for “0.75%”, “96.83%” for “91.48%”
Heparin blood samples (peripheral blood 10 mL) were collected from adult T cell leukemia patients (3), and diluted with 10 mL of PBS. […] The cells were suspended in 7 mL of Yssel medium, 1 mL therefrom was stained with PE-labeled anti-human CD3 monoclonal antibody and FITC-labeled anti-human Vδ2 monoclonal antibody, and analyzed by flow cytometer. […]

Data set [2] has as its system Vδ2 positive γδ T cells in peripheral blood mononuclear cells of lung cancer patients. The data set can be described thus: Induction of Vδ2 positive γδ T cell proliferation from peripheral blood mononuclear cells of lung cancer patients (FACS). The settings on record: ZOLF-POM 1 μM, cultured 11 days with IL-2. The data set is classed as cell-based, human. On the procedure: as §1, with “collected from lung cancer patients (1),” for “collected from adult T cell leukemia patients (1),”, “with 10 ml of PBS.” for “with 10 mL of PBS.”, “in FIG. 5, Vδ2 positive” for “in FIG. 2, Vδ2 positive”, “accounted for 4.14% of lymphocyte” for “accounted for 0.75% of lymphocyte”, “accounted for 98.59% of lymphocyte” for “accounted for 91.48% of lymphocyte”
Heparin blood samples (peripheral blood 10 mL) were collected from lung cancer patients (2), and diluted with 10 mL of PBS. This was overlaid on 20 mL of Ficoll-Paque and subjected to density gradient centrifugation at 600×g for 30 min at room temperature. […] The cells were suspended in 7 mL of Yssel medium, 1 mL therefrom was stained with PE-labeled anti-human CD3 monoclonal antibody and FITC-labeled anti-human Vδ2 monoclonal antibody, and analyzed by flow cytometer. […]

In data set [3] the test system is human histiocytic tumor cell line U937. The data set can be described thus: CD107a expression of Vδ2 positive γδ T cells on compound-treated U937 cells (flow cytometry). The data set is classed as cell-based. The settings on record: U937 treated 2 hr; Vδ2 positive γδ T cells from normal adult (1). The method, then: Furthermore, PE-labeled anti-human CD107a monoclonal antibody (5 μL) was added, and the mixture was incubated at 37° C. for 2 hr. Thereto was added FITC-labeled anti-human Vδ2 monoclonal antibody (2 μL), and the mixture was incubated on ice for 20 min. This was washed 3 times with 2% FCS-added PBS, and suspended in 200 μL of 2% FCS-added PBS.

The test system of data set [4] is human bladder cancer cell line EJ-1. The data set can be described thus: Specific cytotoxicity of Vδ2 positive γδ T cells on compound-treated EJ-1 (time-resolved fluorescence). The settings on record: γδ T cells from normal adult (1), E/T 0:1-40:1.
Procedure: Human bladder cancer cell line EJ-1 cells were suspended in RPMI1640 medium at a cell concentration of 1×10^6/mL, and dispensed by 1 mL to a 15 mL conical tube. This was centrifuged at 600×g for 5 min, and the supernatant was removed. […] The compound solutions of the dilution series were added by 1 mL to the cell pellets after removal of the supernatant and incubated at 37° C. for 1 hr 45 min. Thereto was added 10 mM lanthanoid metal chelating agent by 2.5 μL, and the mixture was further incubated for 15 min. These conical tubes were centrifuged at 600×g for 5 min, and the cell pellets were washed 3 times with RPMI1640 medium. Then, the cell pellets were suspended in 5 mL of RPMI1640 medium, 2 mL therefrom was placed in a different conical tube, and 6 mL of RPMI1640 medium was further added. The cell suspension was seeded by 100 μL in a 96 well round bottom plate. Vδ2 positive γδ T cells derived from normal adult (1) were reacted at an effector cell/target cell ratio of 0:1, 5:1, 10:1, 20:1, 40:1, and incubated for 40 min at 37° C. The plate was centrifuged at 600×g for 2 min, 25 μL of culture supernatant was taken, and diluted with 200 μL of europium-added acetate buffer. The mixture was taken by 200 μL, and time-resolved fluorescence was measured.
For data set [5], the system named is adult T cell leukemia cell line HCT-4. The data set can be described thus: Specific cytotoxicity of Vδ2 positive γδ T cells on compound-treated HCT-4 (time-resolved fluorescence). The settings on record: γδ T cells from adult T cell leukemia patients (4), E/T 1.25:1-80:1, 1 and 10 μM tested.
Procedure: Adult T cell leukemia cell line HCT-4 cells were suspended in RPMI1640 medium at a cell concentration of 1×10^6/mL, and dispensed by 1 mL to a 15 mL conical tube. This was centrifuged at 600×g for 5 min, and the supernatant was removed. […] Thereto was added 10 mM lanthanoid metal chelating agent by 2.5 μL, and the mixture was further incubated for 15 min. These conical tubes were centrifuged at 600×g for 5 min, and the cell pellets were washed 3 times with RPMI1640 medium. Then, the cell pellets were suspended in 5 mL of RPMI1640 medium, 2 mL therefrom was placed in a different conical tube, and 6 mL of RPMI1640 medium was further added. The cell suspension was seeded by 100 μL in a 96 well round bottom plate. […] The plate was centrifuged at 600×g for 2 min, 25 μL of culture supernatant was taken, and diluted with 200 μL of europium-added acetate buffer. The mixture was taken by 200 μL, and time-resolved fluorescence was measured.
The test system of data set [6] is human histiocytic tumor cell line U937. The data set can be described thus: Specific cytotoxicity of Vδ2 positive γδ T cells on compound-treated U937 (time-resolved fluorescence). On the procedure: A dilution series of 0 μM, 100 μM, 300 μM, 1000 μM was prepared for ZOLF.
A dilution series of 0 μM, 300 μM, 1000 μM, 3000 μM was prepared for ALEF.
A dilution series of 0 μM, 300 μM, 1000 μM, 3000 μM was prepared for PAMF.
A dilution series of 0 μM, 300 μM, 1000 μM, 3000 μM was prepared for IBAF.

[7] abbreviates: U937, γδ T cells from normal adult (1), E/T 0:1-40:1.

Consider `CC(C)(C)C(=O)OCOP(=O)(OCOC(=O)C(C)(C)C)C(F)(Cn1ccnc1)P(=O)(OCOC(=O)C(C)(C)C)OCOC(=O)C(C)(C)C` [ZOLF-POM, tetrakispivaloyloxymethyl-1-fluoro-2-(1H-imidazoyl-1-ethylidene)-1,1-bisphosphonate], for which the “Vδ2 positive γδ T cells, proportion of lymphocyte gate” value in data set [1] (adult T cell leukemia patient (1), 0.75% before culture) came to 91.48%; in data set [1] (adult T cell leukemia patient (2), 1.58% before culture), 96.83%; in data set [1] (adult T cell leukemia patient (3), 0.49% before culture), 98.29%; in data set [2] (lung cancer patient (1), 4.14% before culture) it was 98.59%; in data set [2] (lung cancer patient (2), 1.95% before culture), 95.72%. Besides, the “compound concentration that induces maximum CD107a expression” value in data set [3] is “about 100 nM”. In addition, the figures for the “concentration at which sensitivity to cytotoxicity activity of Vδ2 positive γδ T cells is promoted” value in data set [4] and in data set [5] were “at least 1.25 μM” and “at least 1 μM”, respectively.

As for `NCCCC(F)(P(=O)(O)O)P(=O)(O)O` [ALEF, 4-amino-1-fluoro-butylidene-1,1-bisphosphonic acid], in data set [3], the “compound concentration that induces maximum CD107a expression” value was “several hundred”. Also, the “concentration at which sensitivity to cytotoxicity activity of Vδ2 positive γδ T cells is promoted” value in data set [6] (setting [7]) is reported as “at least 300 μM”.

With `O=P(O)(O)C(F)(Cn1ccnc1)P(=O)(O)O` [ZOLF, 1-fluoro-(2-imidazoyl-1-ethylidene)-1,1-bisphosphonic acid], the “compound concentration that induces maximum CD107a expression” value in data set [3] is listed as “several hundred”.

As to `CCCCCN(C)CCC(F)(P(=O)(O)O)P(=O)(O)O` [IBAF, 1-fluoro-3-(methyl(pentyl)amino)propylidene-1,1-bisphosphonic acid], the “concentration at which sensitivity to cytotoxicity activity of Vδ2 positive γδ T cells is promoted” value in data set [6] is given as “at least 300 μM”.

`NCCC(F)(P(=O)(O)O)P(=O)(O)O` [PAMF, 3-amino-1-fluoro-propylidene-1,1-bisphosphonic acid]: the “compound concentration that induces maximum CD107a expression” value in data set [3] is given as “several hundred”. Further, the “concentration at which sensitivity to cytotoxicity activity of Vδ2 positive γδ T cells is promoted” value in data set [6] (setting [7]) is listed as “at least 300 μM”.

For the origin of these results see US10280188B2, “Fluorine-containing bisphosphonic acid derivative and use thereof” (NAGASAKI UNIVERSITY, priority 2015, dated 2019).
